PMC6017299, “Ent-Clerodane Diterpenes from the Bark of Croton oligandrus Pierre ex Hutch. and Assessment of Their Cytotoxicity against Human Cancer Cell Lines” (Molecules : A Journal of Synthetic Chemistry and Natural …, 2018)
Read-outs that look alike come from different tables or passages of the source.

How the values were obtained:
Assay type in all cases: cell-based
[1] = tested on: A549 (adenocarcinoma human alveolar basal epithelial cell line); assay: MTT cell viability assay, A549 cells; conditions: 0 to 200 µM, 48 h, mean ± SEM (n = 3), read-out: IC50 (50% cell growth inhibition) A549
Description: (§1) The in vitro activity of the crude extracts, fractions and isolated compounds from C. oligandrus on metabolic cell viability was assessed against A549 (adenocarcinoma human alveolar basal epithelial cell 211 line), MCF7 (human breast adenocarcinoma cell line), PC3 (human prostate cancer cell line) and PNT2 212 (human normal prostate epithelium cell line). The resulting inhibitory activity is termed “cytotoxic activity” throughout the manuscript. The cell lines were grown in RPMI medium supplemented with L-glutamine (2 mM), penicillin (100 U/mL), streptomycin (100 μg/mL) and 10% foetal bovine serum (FBS) and cultured at 37 °C, 5% CO2 and 95% humidity. For experimental use, the cells were seeded into 96-well plates (1.2 × 10^4/well) and incubated for 24 h. Cells were then treated with crude extract (0–250 µg/mL) for 24 h or isolated compounds (0 to 200 µM) for 48 h and the cell viability was measured using the MTT assay. The formazan crystals formed were dissolved in DMSO and optical density was read at 570 nm using a ClarioStar plate reader, Manchester, UK. Three individual wells were assayed per treatment; the assay was repeated three times and cytotoxic activity was determined using the percentage of absorbance compared to the control cells [(absorbance of treated cells/absorbance of untreated cells) × 100]. Doxorubicin was used as the positive control and the IC50 value of each test sample was calculated using the software Graphad Prism 7.02, La Jolla, CA, USA.

[2] = tested on: MCF7 (human breast adenocarcinoma cell line); assay: MTT cell viability assay, MCF7 cells; conditions: 0 to 200 µM, mean ± SEM (n = 3), read-out: IC50 (50% cell growth inhibition) MCF-7
Description: (§2) The resulting inhibitory activity is termed “cytotoxic activity” throughout the manuscript. The cell lines were grown in RPMI medium supplemented with L-glutamine (2 mM), penicillin (100 U/mL), streptomycin (100 μg/mL) and 10% foetal bovine serum (FBS) and cultured at 37 °C, 5% CO2 and 95% humidity. For experimental use, the cells were seeded into 96-well plates (1.2 × 10^4/well) and incubated for 24 h. […] The formazan crystals formed were dissolved in DMSO and optical density was read at 570 nm using a ClarioStar plate reader, Manchester, UK. Three individual wells were assayed per treatment; the assay was repeated three times and cytotoxic activity was determined using the percentage of absorbance compared to the control cells [(absorbance of treated cells/absorbance of untreated cells) × 100].

[3] = tested on: PC3 (human prostate cancer cell line); assay: MTT cell viability assay, PC3 cells; conditions: 0 to 200 µM, 48 h, mean ± SEM (n = 3), read-out: IC50 (50% cell growth inhibition) PC-3
Description: as §1

[4] = tested on: PNT2 (human normal prostate epithelium cell line); assay: MTT cell viability assay, PNT2 cells; conditions: 0 to 200 µM, 48 h, noncancerous cells, mean ± SEM (n = 3), read-out: IC50 (50% cell growth inhibition) PNT2
Description: as §1

[5] = tested on: A549, MCF7, PC3 and PNT2 cell lines; assay: MTT cell viability assay, statements across the cell line panel; conditions: Homo sapiens, positive control, read-out: IC50 range between the cell lines used
Description: as §2

[6] = Homo sapiens, PC-3, isolated compounds
[7] = Homo sapiens, PNT2, isolated compounds
[8] = Homo sapiens, A549, isolated compounds
[9] = Homo sapiens, MCF7, isolated compounds, 48 h

| SMILES | IC50 ([1]; isolated compounds) [µM] | IC50 ([2]; Homo sapiens, MCF7, 48 h, isolated compounds) [µM] | IC50 [3, 6] [µM] | IC50 [4, 7] [µM] | IC50 ([2]; isolated compounds, 48 h) [µM] | IC50 ([3]; isolated compounds) [µM] | IC50 ([4]; isolated compounds) [µM] | IC50 [1, 8] [µM] | IC50 [2, 9] [µM] | IC50 [5] [µM] |
| --- | --- | --- | --- | --- | --- | --- | --- | --- | --- | --- |
| COC(=O)C1=CC(=O)C=C2C1(C(=O)OC)CCC(C)C21CC(c2ccoc2)OC1=O (centres unmarked) [Compound 1, megalocarpoidolide D] | 63.8 ± 13.8 | 136 ± 22.7 | > 200 | > 200 |  |  |  |  |  |  |
| COC(=O)C1=CC(=O)C=C2C1(C(=O)OC)CCC(C)C21CC(c2ccoc2)OC1=O (stereo not drawn) [Compound 2, 12-epi-megalocarpoidolide D] | 139 ± 22.1 |  |  |  | 171 ± 51.4 | > 200 | > 200 |  |  |  |
| COC(=O)C1=CCCC2C1(C(=O)OC)CCC(C)C21CC(c2ccoc2)OC1=O (stereo not drawn) [Compound 5, 12-epi-crotocorylifuran] |  |  | > 200 | > 200 |  |  |  | 107 ± 27.2 | > 200 |  |
| COc1cc(C=O)ccc1O [Compound 8, vanillin] |  |  | > 200 | > 200 |  |  |  | > 200 | > 200 |  |
| CC(=O)O[C@H]1CC[C@]2(C)[C@H]3CC[C@]4(C)C(=CC[C@@]5(C(=O)O)CCC(C)(C)C[C@H]54)[C@]3(C)CC[C@H]2C1(C)C [Compound 9, acetyl-aleuritolic acid] |  |  | 172 ± 39.7 | 168 ± 25.3 |  |  |  | 137 ± 18.9 | > 200 |  |
| C=C(C)[C@@H]1CC[C@]2(C)CC[C@]3(C)[C@H](CC[C@@H]4[C@@]5(C)CC[C@H](O)C(C)(C)[C@@H]5CC[C@]43C)[C@@H]12 [Compound 10, lupeol] |  |  | 136 ± 21.1 | > 200 |  |  |  | > 200 | > 200 |  |
| COc1cccc2c1C(=O)c1c(O)c3c(c(O)c1C2=O)C[C@@](O)(C(=O)CO)C[C@@H]3O[C@H]1C[C@H](N)[C@H](O)[C@H](C)O1 [Doxorubicin, reference compound] |  |  | 16.4 ± 2.9 | 1.5 ± 0.3 |  |  |  | 1.3 ± 0.3 | 0.7 ± 0.1 | 0.7 to 16.4 |
